# Results taken from the supplement of paper PMC13380429.
# How the values were obtained:
# Conditions in all cases: 72 h
# Calu-3 [1] = experiment: cell viability relative to DMSO; higher = less toxic
# Vero E6 [2] = experiment: as above
# U2OS [3] = experiment: as above
# Caco-2 [4] = experiment: as above
# HepG2 [5] = experiment: as above
# Calu-3 [6] = experiment: drug sensitivity score (DSS) for viability; higher = more toxic; extreme values may be limits of the assay
# Vero E6 [7] = experiment: as above
# U2OS [8] = experiment: as above
# Caco-2 [9] = experiment: as above
# HepG2 [10] = experiment: as above
# U2OS [11] = experiment: relative viability EC50 (midpoint between 100% and the lowest measured viability); higher = less toxic
# Caco-2 [12] = experiment: as above
# HepG2 [13] = experiment: as above
# Vero E6 [14] = experiment: as above
Structure (SMILES),cell viability (Calu-3 [1]; 1 nM),cell viability (Calu-3 [1]; 10 nM),cell viability (Calu-3 [1]; 100 nM),cell viability (Calu-3 [1]; 1000 nM),cell viability (Calu-3 [1]; 10000 nM),cell viability (Vero E6 [2]; 1 nM),cell viability (Vero E6 [2]; 10 nM),cell viability (Vero E6 [2]; 100 nM),cell viability (Vero E6 [2]; 1000 nM),cell viability (Vero E6 [2]; 10000 nM),cell viability (U2OS [3]; 1 nM),cell viability (U2OS [3]; 10 nM),cell viability (U2OS [3]; 100 nM),cell viability (U2OS [3]; 1000 nM),cell viability (U2OS [3]; 10000 nM),cell viability (Caco-2 [4]; 1 nM),cell viability (Caco-2 [4]; 10 nM),cell viability (Caco-2 [4]; 100 nM),cell viability (Caco-2 [4]; 1000 nM),cell viability (Caco-2 [4]; 10000 nM),cell viability (HepG2 [5]; 1 nM),cell viability (HepG2 [5]; 10 nM),cell viability (HepG2 [5]; 100 nM),cell viability (HepG2 [5]; 1000 nM),cell viability (HepG2 [5]; 10000 nM),drug sensitivity score (Calu-3 [6]),drug sensitivity score (Vero E6 [7]),drug sensitivity score (U2OS [8]),drug sensitivity score (Caco-2 [9]),drug sensitivity score (HepG2 [10]),relative viability EC50 (U2OS [11]),relative viability EC50 (Caco-2 [12]),relative viability EC50 (HepG2 [13]),relative viability EC50 (Vero E6 [14])
COc1ccc(-n2c(SCCCN3C(=O)c4cccc5cccc(c45)C3=O)nnc2-c2ccncc2)cc1 [WIKI4],96.2%,103%,92.8%,75%,71.3%,97.8%,101%,97.9%,91.8%,66.8%,100%,109%,98.6%,95.7%,87.3%,90.5%,109%,96%,87%,95.6%,96.3%,97.6%,93.4%,107%,100%,4.7,2.8,0.2,1.1,0,> 10 µM,> 10 µM,> 10 µM,–
c1ccc(NCc2ccc(CNc3ccccn3)cc2)nc1 [WZ811],–,–,–,–,–,93.5%,95.5%,94.2%,101%,103%,96.8%,96.1%,99.8%,96.7%,97.9%,97.9%,105%,103%,95.5%,100%,98.6%,101%,98.7%,106%,111%,–,0,0,0,0,> 10 µM,> 10 µM,> 10 µM,> 10 µM
CCNC(=O)[C@@H]1CCCN1C(=O)[C@H](CCCNC(=N)N)NC(=O)[C@H](CC(C)C)NC(=O)[C@@H](C)NC(=O)[C@H](Cc1ccc(O)cc1)NC(=O)[C@H](CO)NC(=O)[C@H](Cc1c[nH]c2ccccc12)NC(=O)[C@H](Cc1cnc[nH]1)NC(=O)[C@@H]1CCC(=O)N1 [alarelin],–,–,–,–,–,109%,106%,104%,96.9%,102%,–,–,–,–,–,116%,100%,86.3%,118%,102%,97.8%,103%,101%,92%,93.7%,–,0,–,0,0,–,> 10 µM,> 10 µM,> 10 µM
CC1(C)S[C@@H]2[C@H](NC(=O)[C@H](N)c3ccccc3)C(=O)N2[C@H]1C(=O)O [ampicillin],–,–,–,–,–,–,–,–,–,–,–,–,–,–,–,–,–,–,–,–,–,–,–,–,–,0,0,0,–,0,–,–,–,–
CC(=O)OCC(=O)[C@@]1(O)[C@@H](C)C[C@H]2[C@@H]3CCC4=CC(=O)C=C[C@]4(C)[C@@]3(F)[C@@H](O)C[C@@]21C [betamethasone-acetate],–,–,–,–,–,–,–,–,–,–,–,–,–,–,–,–,–,–,–,–,–,–,–,–,–,0,0,0,–,0,–,–,–,–
Cc1nc2ccccc2n1Cc1ccc(Cl)cc1 [chlormidazole],–,–,–,–,–,96.7%,107%,104%,107%,85.9%,99.2%,95.9%,98.8%,96.9%,95.8%,103%,101%,109%,83.1%,77.8%,92.3%,95.4%,109%,92.1%,25.1%,–,0.1,0,2.4,5.4,> 10 µM,> 10 µM,2.3 µM,> 10 µM
Nc1nc(Cl)nc2c1ncn2[C@@H]1O[C@H](CO)[C@@H](O)[C@@H]1F [clofarabine],91.4%,106%,96.2%,64.8%,54.6%,96.2%,91.5%,96.6%,87.8%,55.9%,99.9%,101%,105%,79.7%,65.5%,90.2%,102%,88.8%,85.9%,71.5%,94.1%,100%,89.2%,33.3%,39.3%,6.8,4,4,2.8,14.1,–,–,0.192 µM,–
COc1cc2c(c(OC)c1OC)-c1ccc(OC)c(=O)cc1[C@@H](NC(C)=O)CC2 [colchicine],–,–,–,–,–,101%,101%,96.9%,31.1%,28.5%,104%,103%,25.3%,20%,19.2%,97.2%,103%,45.8%,46.1%,41.1%,104%,91.2%,38%,34.8%,39.7%,–,13.2,23.9,17.5,21.2,0.0407 µM,0.0419 µM,0.0241 µM,0.308 µM
C/C=C(/C)C(=O)O[C@H]1[C@H](OC(C)=O)[C@@]2(CO)C(CC1(C)C)C1=CCC3[C@@]4(C)CCC(O[C@@H]5O[C@H](C(=O)O)[C@@H](O[C@@H]6O[C@H](CO)[C@@H](O)[C@H](O)[C@H]6O)[C@H](O)[C@H]5O[C@@H]5O[C@H](CO)[C@@H](O)[C@H](O)[C@H]5O)[C@](C)(CO)C4CC[C@@]3(C)[C@]1(C)C[C@H]2O.C/C=C(\C)C(=O)O[C@H]1[C@H](OC(C)=O)[C@@]2(CO)C(CC1(C)C)C1=CCC3[C@@]4(C)CCC(O[C@@H]5O[C@H](C(=O)O)[C@@H](O[C@@H]6O[C@H](CO)[C@@H](O)[C@H](O)[C@H]6O)[C@H](O)[C@H]5O[C@@H]5O[C@H](CO)[C@@H](O)[C@H](O)[C@H]5O)[C@](C)(CO)C4CC[C@@]3(C)[C@]1(C)C[C@H]2O (some centres undefined) [escin],–,–,–,–,–,–,–,–,–,–,–,–,–,–,–,–,–,–,–,–,–,–,–,–,–,0,4.1,1.5,–,3.8,–,–,–,–
C[C@]12CC[C@@H]3c4ccc(O)cc4CC[C@H]3[C@@H]1CC[C@@H]2O [estradiol],–,–,–,–,–,–,–,–,–,–,–,–,–,–,–,–,–,–,–,–,–,–,–,–,–,0,0,0,–,0,–,–,–,–
c1ccc(CCNc2nc(-c3ccccc3)cs2)cc1 [fanetizole],–,–,–,–,–,98.7%,99.7%,101%,98.4%,100%,104%,104%,104%,97.7%,101%,96.4%,87.3%,92.3%,88.9%,87.3%,101%,96.9%,103%,94.5%,100%,–,0,0,0.9,0,> 10 µM,> 10 µM,> 10 µM,> 10 µM
Cc1ccc(S(=O)(=O)NC(=O)NN2CC3CCCC3C2)cc1 (centres undefined) [gliclazide],–,–,–,–,–,106%,97%,101%,99.2%,102%,92%,99.3%,102%,93.3%,101%,87%,110%,100%,102%,89%,99.1%,96.1%,105%,118%,108%,–,0,0,0,0,> 10 µM,> 10 µM,> 10 µM,> 10 µM
CN(C)c1ccc2nc3ccc(=[N+](C)C)cc-3sc2c1 [methylene-blue],–,–,–,–,–,–,–,–,–,–,–,–,–,–,–,–,–,–,–,–,–,–,–,–,–,6.1,5.1,3,–,9.2,–,–,–,–
COc1ccccc1OCC(O)CNC(C)C (centres undefined) [moprolol],–,–,–,–,–,102%,99.6%,105%,99.5%,102%,101%,96.6%,99.7%,102%,103%,97.7%,95.4%,99.6%,98.2%,92.7%,98.3%,113%,100%,98.3%,103%,–,0,0,0,0,> 10 µM,> 10 µM,> 10 µM,> 10 µM
CCCCCCCCCCCCCCOC(=O)c1cccnc1 [myristyl-nicotinate],–,–,–,–,–,96.6%,98.2%,97.6%,102%,101%,101%,96.7%,101%,98.4%,102%,98.2%,103%,97.7%,97.8%,103%,98.7%,93.5%,105%,99.4%,102%,–,0,0,0,0,> 10 µM,> 10 µM,> 10 µM,> 10 µM
O=C(O)C(=O)O.[NH-][C@@H]1CCCC[C@H]1[NH-].[Pt+2] [oxaliplatin],–,–,–,–,–,–,–,–,–,–,–,–,–,–,–,–,–,–,–,–,–,–,–,–,–,0,4.8,0.1,–,6,–,–,–,–
Cc1cccn2c(=O)c(-c3nnn[nH]3)cnc12 [pemirolast],–,–,–,–,–,89.7%,88.7%,88.5%,96.4%,93.8%,98.4%,95.1%,95.4%,91.5%,95.6%,95.1%,98.6%,92.6%,96.1%,97.6%,102%,98.2%,101%,96.2%,92.7%,–,0,0,0,0,> 10 µM,> 10 µM,> 10 µM,> 10 µM
O=C(/C=C/c1ccc(O)c2c1[C@H](C(=O)O[C@H](Cc1ccc(O)c(O)c1)C(=O)O)[C@@H](c1ccc(O)c(O)c1)O2)O[C@H](Cc1ccc(O)c(O)c1)C(=O)O [salvianolic-acid-B],–,–,–,–,–,96.1%,92.9%,95.3%,91.6%,103%,94.4%,98.2%,97.5%,101%,97.8%,99.2%,97.1%,96.6%,104%,101%,101%,86.8%,107%,96.3%,98%,–,0,0,0,0,> 10 µM,> 10 µM,> 10 µM,> 10 µM
C=C1/C(=C\C=C2/CCC[C@]3(C)[C@@H]([C@H](C)CC[C@@H](O)C(C)C)CC[C@@H]23)C[C@@H](O)C[C@@H]1O [tacalcitol],–,–,–,–,–,–,–,–,–,–,–,–,–,–,–,–,–,–,–,–,–,–,–,–,–,0,1.9,0.3,–,0,–,–,–,–
Clc1ccc2nsnc2c1NC1=NCCN1 [tizanidine],–,–,–,–,–,–,–,–,–,–,–,–,–,–,–,–,–,–,–,–,–,–,–,–,–,0,0,0,–,0,–,–,–,–
